Assay results reported in patent US8802135B2, “Delivery system for remote treatment of an animal” (SmartVet Pty Ltd., priority 2006, dated 2014).

Key:
[1] = primate skin types in contact with pure ivermectin; cited from earlier work
[2] = drug trials: absorption of abamectin from projectile vs Pour On; format: in vivo; conditions: applied in a projectile at 5 g/l
Source text: The system has been adapted for use in Africa for treating antelope species. Each projectile was designed to treat a 100 kg animal.

wireworm = assay: efficacy trial against endo-parasite wireworm; format: in vivo, cattle; conditions: ~200 kg cow, slaughtered 3 weeks after treatment
Method: The purpose of the trial was to establish the efficacy of biologically active agent when administered by the system according to the present invention in treating cattle for the endo-parasite wireworm.
Two cattle of similar age and weight (˜200 kg) were infected with wireworm parasite to the level of 6000 to 8000 worm eggs per gram of faeces. One cow was treated with the biologically active agent in its ‘pour on’ form and the other cattle were treated with two dosage projectiles fired from a distance of approx 20 meters with a CO2 propelled launcher with an impact velocity of about 130 ft/sec.
Each projectile was spherical and made from soft gelatine compound with the shell being of about 2 mm thick. The size was sufficient to hold about 10 ml of the liquid biologically active agent comprising the following constituent:
10 mg of abamectin (at a dosage concentration of 1 mg per 10 kg of body mass)
5% solution of the solvent/transdermal carrier propylene glycol (the proprietary brand Icinol)
a standard turquoise, inert pharmaceutical colorant known as FC & D blue
The impact area of the ruptured projectiles was the hind quarter and lower neck/shoulder of the cattle.
The cattle were slaughtered 3 weeks after treatment and the stomach contents/linings examined under laboratory conditions.

| Substance | active agent absorbed into the bloodstream [1] | absorption of the active compared with traditional Pour On application ([2]; antelope species) | absorption of the active compared with traditional Pour On application ([2]; cattle) | free of parasite (wireworm; 'pour on' form) | free of internal parasite infection (wireworm; two dosage projectiles) |
| --- | --- | --- | --- | --- | --- |
| ivermectin [pure ivermectin] | less than 1% | – | – | – | – |
| abamectin | – | at least as good as | at least as good as | approx 96% | 100% |
